Results: PubChem BioAssay AID1259411 (Chemical Carcinogenesis Research Information System (CCRIS), 2018)
Calls of active or inactive are those of the source. The rule behind the calls is not given here.

Tested on: rodent carcinogenicity bioassays, tumor incidence
Test: CCRIS carcinogenicity studies
Method in brief: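 NCI-built, expert-reviewed records of carcinogenicity and related test outcomes (mutagenicity, tumor promotion/inhibition) compiled from published and report sources, historical span 1985-2011, not updated.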

COc1ccc(CN(CCN(C)C)c2ccccn2)cc1
carcinogen call (Species: MOUSE, Strain/Sex: B6C3F1/FEMALE, Route: ORAL, Dose: 0, 150, 750, 1500 PPM IN DIET FOR 103 WK (STUDY DURATION: 103 WK), Dose: 0, 150, 750, 1500 PPM IN DIET FOR 103 WK (STUDY DURATION: 103 WK)): inactive; negative | carcinogen call (Species: MOUSE, Strain/Sex: B6C3F1/MALE, Route: ORAL, Dose: 0, 150, 750, 1500 PPM IN DIET FOR 103 WK (STUDY DURATION: 104 WK), Dose: 0, 150, 750, 1500 PPM IN DIET FOR 103 WK (STUDY DURATION: 104 WK)): inactive; negative | carcinogen call (Species: RAT, Strain/Sex: F344/FEMALE, Route: ORAL, Dose: 0, 300, 1500, 3000 PPM IN DIET FOR 2 YR (STUDY DURATION: 2 YR), Dose: 0, 300, 1500, 3000 PPM IN DIET FOR 2 YR (STUDY DURATION: 2 YR)): inactive; negative | carcinogen call (Species: RAT, Strain/Sex: F344/FEMALE, Route: ORAL, Dose: 0, 2000 PPM IN DIET (TOTAL DOSE: 120 G/KG) FOR 110 WK (STUDY DURATION: 133 WK)): inactive; negative | carcinogen call (Species: RAT, Strain/Sex: F344/FEMALE, Route: ORAL, Dose: 0, 2000 PPM IN DRINKING WATER (0.2%) 5 D/WK FOR 110 WK (TOTAL DOSE: 88 G/KG) (STUDY DURATION: 133 WK)): inactive; negative | carcinogen call (Species: RAT, Strain/Sex: F344/MALE, Route: ORAL, Dose: 0, 300, 1500, 3000 PPM IN DIET FOR 2 YR (STUDY DURATION: 2 YR), Dose: 0, 300, 1500, 3000 PPM IN DIET FOR 2 YR (STUDY DURATION: 2 YR)): inactive; negative | carcinogen call (Species: RAT, Strain/Sex: F344/MALE, Route: ORAL, Dose: 0, 2000 PPM (0.2%) IN DRINKING WATER 5 D/WK FOR 110 WK (TOTAL DOSE: 55 G/KG) (STUDY DURATION: 133 WK)): inactive; negative | carcinogen call (Species: RAT, Strain/Sex: F344/MALE, Route: ORAL, Dose: O, 2000 PPM IN DIET (TOTAL DOSE: 110 G/KG) FOR 110 WK (STUDY DURATION: 133 WK)): inactive; negative | carcinogen call (Species: RAT, Strain/Sex: SPRAGUE-DAWLEY/FEMALE, Route: ORAL, Dose: 0, 500, 1000 PPM IN DRINKING WATER 5D/WK FOR LIFE (STUDY DURATION: 549-745 D), Dose: 0, 500, 1000 PPM IN DRINKING WATER 5D/WK FOR LIFE (STUDY DURATION: 549-745 D)): inactive; negative | carcinogen call (Species: RAT, Strain/Sex: SPRAGUE-DAWLEY/MALE, Route: ORAL, Dose: 0, 500, 1000 PPM IN DRINKING WATER 5D/WK FOR LIFE (STUDY DURATION: 496-611 D), Dose: 0, 500, 1000 PPM IN DRINKING WATER 5D/WK FOR LIFE (STUDY DURATION: 496-611 D)): inactive; negative

COc1cc(-c2ccc(N=C=O)c(OC)c2)ccc1N=C=O
carcinogen call (Species: MOUSE, Strain/Sex: B6C3F1/FEMALE, Route: ORAL, Dose: 0, 22000, 44000 PPM IN DIET FOR 78 WK (STUDY DURATION: 103 WK), Dose: 0, 22000, 44000 PPM IN DIET FOR 78 WK (STUDY DURATION: 103 WK)): inactive; negative | carcinogen call (Species: MOUSE, Strain/Sex: B6C3F1/MALE, Route: ORAL, Dose: 0, 22000, 44000 PPM IN DIET FOR 78 WK (STUDY DURATION: 103 WK), Dose: 0, 22000, 44000 PPM IN DIET FOR 78 WK (STUDY DURATION: 103 WK)): inactive; negative | carcinogen call (Species: RAT, Strain/Sex: F344/FEMALE, Route: GAVAGE, ORAL, Dose: 0, 1500, 3000 MG/KG FOR 22 WK, THEN 22000, 44000 PPM IN DIET FOR 56 WK (STUDY DURATION: 104 WK), Dose: 0, 1500, 3000 MG/KG FOR 22 WK, THEN 22000, 44000 PPM IN DIET FOR 56 WK (STUDY DURATION: 104 WK), Tumor Site: Type of Lesion: HEMATOPOIETIC SYSTEM (LEUKEMIA), UTERUS: ENDOMETRIAL STROMAL POLYP, EAR (ZYMBAL GLAND AND SKIN OF EAR): SQUAMOUS CELL CA, Tumor Site: Type of Lesion: HEMATOPOIETIC SYSTEM (LEUKEMIA), UTERUS: ENDOMETRIAL STROMAL POLYP, EAR (ZYMBAL GLAND AND SKIN OF EAR): SQUAMOUS CELL CA): active; positive | carcinogen call (Species: RAT, Strain/Sex: F344/MALE, Route: GAVAGE, ORAL, Dose: 0, 1500, 3000 MG/KG FOR 22 WK, THEN 22000, 44000 PPM IN DIET FOR 56 WK (STUDY DURATION: 104 WK), Dose: 0, 1500, 3000 MG/KG FOR 22 WK, THEN 22000, 44000 PPM IN DIET FOR 56 WK (STUDY DURATION: 104 WK), Tumor Site: Type of Lesion: INTEGUMENTARY SYSTEM (SKIN (EXCLUDING SKIN OF EAR)): PAPILLOMA (NOS) OR BASAL CELL TUMOR OR TRICHOEPITHELIOMA OR SEBACEO): active; positive

CCOC(OCC)C(=O)c1ccccc1
carcinogen call (Species: MOUSE, Strain/Sex: C3H/HEJ/MALE, Route: DERMAL, Dose: 0, 11.3 MG AS A 50% DILUTION IN ACETONE 3/WK FOR LIFESPAN (STUDY DURATION: LIFESPAN)): inactive; negative | carcinogen call (Species: MOUSE, Strain/Sex: C3H/HEJ/MALE, Route: DERMAL, Dose: 0, 25 MG UNDILUTED 3/WK FOR LIFESPAN (STUDY DURATION: LIFESPAN)): inactive; negative

O=C1CCC(=O)O1
carcinogen call (Species: MOUSE, Strain/Sex: B6C3F1/FEMALE, Route: GAVAGE, Dose: 0, 75, 150 MG/KG IN CORN OIL 5 D/WK FOR 103 WK (STUDY DURATION: 104 WK), Dose: 0, 75, 150 MG/KG IN CORN OIL 5 D/WK FOR 103 WK (STUDY DURATION: 104 WK)): inactive; negative | carcinogen call (Species: MOUSE, Strain/Sex: B6C3F1/MALE, Route: GAVAGE, Dose: 0, 38, 75 MG/KG IN CORN OIL 5 D/WK FOR 103 WK (STUDY DURATION: 104 WK), Dose: 0, 38, 75 MG/KG IN CORN OIL 5 D/WK FOR 103 WK (STUDY DURATION: 104 WK)): inactive; negative | carcinogen call (Species: RAT, Strain/Sex: F344/FEMALE, Route: GAVAGE, Dose: 0, 50, 100 MG/KG IN CORN OIL 5 D/WK FOR 103 WK (STUDY DURATION: 104 WK), Dose: 0, 50, 100 MG/KG IN CORN OIL 5 D/WK FOR 103 WK (STUDY DURATION: 104 WK)): inactive; negative | carcinogen call (Species: RAT, Strain/Sex: F344/MALE, Route: GAVAGE, Dose: 0, 50, 100 MG/KG IN CORN OIL 5 D/WK FOR 103 WK (STUDY DURATION: 104 WK), Dose: 0, 50, 100 MG/KG IN CORN OIL 5 D/WK FOR 103 WK (STUDY DURATION: 104 WK)): inactive; negative

CC(=O)O[C@]1(C(C)=O)CC[C@H]2[C@@H]3C=C(Cl)C4=CC(=O)CC[C@]4(C)[C@H]3CC[C@@]21C
carcinogen call (Species: DOG, Route: ORAL, Tumor Site: Type of Lesion: MAMMARY GLAND): active; positive

NNC(=O)c1cccnc1
carcinogen call (Species: MOUSE, Strain/Sex: SWISS/FEMALE, Route: ORAL, Dose: 0, 0.125% IN DRINKING WATER FOR LIFE, STUDY DURATION: 100-110 WK, Dose: 0, 0.125% IN DRINKING WATER FOR LIFE, STUDY DURATION: 100-110 WK, Tumor Site: Type of Lesion: LUNG: ADENOMA, ADENOMA OR ADENOCARCINOMA): active; positive | carcinogen call (Species: MOUSE, Strain/Sex: SWISS/MALE, Route: ORAL, Dose: 0, 0.125% IN DRINKING WATER FOR LIFE, STUDY DURATION: 90-100 WK, Dose: 0, 0.125% IN DRINKING WATER FOR LIFE, STUDY DURATION: 90-100 WK, Tumor Site: Type of Lesion: LUNG: ADENOMA OR ADENOCARCINOMA): active; positive

ClC(Cl)(Cl)C(Cl)(Cl)Cl
carcinogen call (Species: MOUSE, Strain/Sex: B6C3F1/FEMALE, Route: GAVAGE, Dose: 0, 590, 1179 MG/KG, TWA, Dose: 0, 590, 1179 MG/KG, TWA, Tumor Site: Type of Lesion: LIVER: HEPATOCELLULAR CARCINOMA): active; positive | carcinogen call (Species: MOUSE, Strain/Sex: B6C3F1/MALE, Route: GAVAGE, Dose: 0, 590, 1179 MG/KG, TWA, Dose: 0, 590, 1179 MG/KG, TWA, Tumor Site: Type of Lesion: LIVER: HEPATOCELLULAR CARCINOMA): active; positive | carcinogen call (Species: RAT, Strain/Sex: F344/F, Route: GAVAGE, Dose: 0, 80, 160 MG/KG IN CORN OIL 5D/WK FOR 103 WK (STUDY DURATION: 105 WK), Dose: 0, 80, 160 MG/KG IN CORN OIL 5D/WK FOR 103 WK (STUDY DURATION: 105 WK)): inactive; negative | carcinogen call (Species: RAT, Strain/Sex: F344/M, Route: GAVAGE, Dose: 0, 10, 20 MG/KG IN CORN OIL 5D/WK FOR 103 WK (STUDY DURATION: 105 WK), Dose: 0, 10, 20 MG/KG IN CORN OIL 5D/WK FOR 103 WK (STUDY DURATION: 105 WK), Tumor Site: Type of Lesion: ADRENAL MEDULLA: PHEOCHROMOCYTOMA, ADRENAL MEDULLA: PHEOCHROMOCYTOMA, BENIGN, COMPLEX OR MALIGNANT, KIDNEY: RENAL TUBULE, Tumor Site: Type of Lesion: ADRENAL MEDULLA: PHEOCHROMOCYTOMA, ADRENAL MEDULLA: PHEOCHROMOCYTOMA, BENIGN, COMPLEX OR MALIGNANT, KIDNEY: RENAL TUBULE): active; positive | carcinogen call (Species: RAT, Strain/Sex: OSBORNE-MENDEL/FEMALE, Route: GAVAGE, Dose: 0, 212, 423 MG/KG, TWA FOR 44 WK, Dose: 0, 212, 423 MG/KG, TWA FOR 44 WK): inactive; negative | carcinogen call (Species: RAT, Strain/Sex: OSBORNE-MENDEL/MALE, Route: GAVAGE, Dose: 0, 212, 423 MG/KG, TWA FOR 44 WK, Dose: 0, 212, 423 MG/KG, TWA FOR 44 WK): inactive; negative
